Assay [1] deals with GST tagged BCl-xL ΔC25 protein (Homo sapiens, UniProt Q07817). As to the kind of experiment: Alphascreen competition binding assay, GST tagged Bcl-xL vs biotinylated Bim BH3-26 peptide. Conditions: competition with Bim BH3-26 peptide; unit inferred. The text has this: (§1) Measurement of competition of compounds of the invention with Bim26-mer for a Bcl-2 homologue binding site.
(§2) Alphascreen (Amplified Luminescent Proximity Homogenous Assay) is a bead based technology which measures the interaction between molecules. The assay consists of two hydrogel coated beads which, when bought into close proximity by a binding interaction, allow the transfer of singlet oxygen from a donor bead to an acceptor bead.
(§3) Upon binding and excitation with laser light at 680 nm, a photosensitizer in the donor bead converts ambient oxygen to a more excited singlet state. This singlet oxygen then diffuses across to react with a chemiluminescer in the acceptor bead. Fluorophores within the same bead are activated resulting in the emission of light at 580-620 nm.
(§4) Screening of the compounds of the invention was performed using the Alphascreen GST (glutathione s-transferase) detection kit system. Test compounds were titrated into the assay which consisted of GST tagged Bclw ΔC29 protein (0.05 nM Final concentration) and Biotinylated Bim BH3-26 peptide, Biotin-[…] (3.0 nM Final concentration). For the GST tagged BCl-xL assay, GST tagged BCl-xL ΔC25 protein (0.6 nM Final concentration) and Biotinylated Bim BH3-26 peptide, Biotin-[…] (5.0 nM final concentration) were used. To this reaction mix anti-GST coated acceptor beads and Streptavidin coated donor beads, both at 15 μg/ml Final concentration, were added and the assay mixture incubated for 4 hours at room temperature before reading. Similarly when the Bcl-2 protein was Mcl-1, GST tagged Mcl-1 protein (0.4 nM Final concentration) and Biotinylated Bak BH3 peptide, Biotin-[…]-OH (4.0 nM Final concentration) were used.
(§5) • 1) prepare a 384 well with 4.75 μL of buffer and 0.25 μL of compounds (20 mM in DMSO) per well. • 2) Mix the binding partners, in one tube add Bcl-w, BCl-xL or Mcl-1 and the acceptor beads, in the second tube add Biotinylated BH3 peptide and the donor beads. • 3) Pre-incubate the two pairs of binding partners for 30 minutes. • 4) Add 1 μL of acceptor beads:Bcl-w, BCl-xL or Mcl-1 protein mix to each well. • 5) Seal the plate and incubate at room temperature for 30 minutes. • 6) Add 10 μL of donor bead:BH3 peptide mix to each well. • 7) Seal the plate, cover with foil and incubate for 4 hours.
(§6) Assay buffer contained 50 mM Hepes pH 7.4, 10 mM DTT, 100 mM NaCl, 0.05% Tween and 0.1 mg/ml casein. Bead dilution buffer contained 50 mM Tris, pH 7.5, 0.01% Tween and 0.1 mg/ml casein. The final DMSO concentration in the assay was 0.5%. Assays were performed in 384 well white Optiplates and analyzed on the PerkinElmer Fusion alpha plate reader (Ex680, Em520-620 nM).
(§7) The GST Alphascreen detection kit and Optiplates were purchased from PerkinElmer.
For orientation: In Alpha technology, singlet oxygen from a donor bead excites a nearby acceptor bead.

The target in assay [2] is GST tagged Mcl-1 protein (Homo sapiens, UniProt Q07820). The assay is described as follows: Alphascreen competition binding assay, GST tagged Mcl-1 vs biotinylated Bak BH3 peptide. The settings on record: competition with Bak BH3 peptide; unit inferred.
Chain of GST tagged Mcl-1 protein (Q07820 whole entry): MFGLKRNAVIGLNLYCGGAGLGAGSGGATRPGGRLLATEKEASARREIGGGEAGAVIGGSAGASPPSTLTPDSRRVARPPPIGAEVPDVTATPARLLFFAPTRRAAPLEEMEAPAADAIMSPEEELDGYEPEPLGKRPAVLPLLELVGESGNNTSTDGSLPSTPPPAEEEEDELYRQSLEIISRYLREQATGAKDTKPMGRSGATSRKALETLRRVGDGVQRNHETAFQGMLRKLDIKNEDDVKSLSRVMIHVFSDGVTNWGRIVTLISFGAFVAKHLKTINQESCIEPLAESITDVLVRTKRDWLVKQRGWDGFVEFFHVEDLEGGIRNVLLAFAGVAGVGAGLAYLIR
Source text: as §1, §2, §3, §4, §5, §6, §7

Assay [3] relates to mouse embryo fibroblasts (MEFs): wild type, Bax/Bak double knockout, Noxa-expressing, Bad-expressing. The assay is described as follows: Cell viability assay on mouse embryo fibroblasts (propidium iodide uptake). The assay is classed as cell-based. The settings on record: propidium iodide uptake after 24 hours. How it is done:
FIG. 1 graphically depicts the effect of Compound 1 (FIG. 1A) and Etoposide (FIG. 1B), at increasing concentrations, on the % viability of certain mouse embryo fibroblast (MEF) cells as assessed by propidium iodide uptake after 24 hours. Noxa and Bad were introduced by retrovirally infecting the cells with pMIG retroviruses as described by Chen et al., 2005.
The efficacy of the compounds of the present invention can also be determined in cell based killing assays using a variety of cell lines and mouse tumor models. For example, their activity on cell viability can be assessed on a panel of cultured tumorigenic and non-tumorigenic cell lines, as well as primary mouse or human cell populations, e.g. lymphocytes. For these assays, 5,000-20,000 cells are cultured at 37° C. and 10% CO2 in appropriate growth media, eg: 100 μL Dulbecco's Modified Eagle's medium supplemented with 10% foetal calf serum, asparaginase and 2-mercaptoethanol in the case of pre-B Eμ-Myc mouse tumors in 96 well plates. […] Cell viability is determined by the ability of the cells to exclude propidium iodide (10 μg/mL by immunofluorescence analysis of emission wavelengths of 660-675 nm on a flow cytometer (BD FACScan). Alternatively, a high throughput calorimetric assay such as the Cell Titre 96 could be used. Aqueous Non-Radioactive Cell Proliferation Assay (Promega) may be used. Cell death by apoptosis is confirmed by pre-incubation of the cells with 50 μM of a caspase inhibitor such as zVAD-fmk.
Neutralisation of both Bcl-xL and Mcl-1 anti-apoptotic proteins in normal cells is required before a cell undergoes apoptosis via the downstream Bax/Bak pathway [Chen et al., 2005; Willis et al., 2005]. A compound that only targets Bcl-xL should not affect normal cells, but could kill certain cancer cells if they rely more on Bcl-xL and less on Mcl-1 for survival. To mirror this, compound 1 was tested for its effect on survival of wild type (wt) mouse embryo fibroblasts (MEFs), Bax/Bak double knockout (BB DKO) MEFs, MEFs that expressed Noxa, and MEFs that expressed Bad. Noxa specifically neutralizes Mcl-1.

The test system of assay [4] is SCLC cell line NCI-H1963. As to the kind of experiment: CellTitre-Glow luminescent cytotoxicity assay, NCI-H1963. The assay is classed as cell-based. Conditions: Homo sapiens; NCI-H1963 cells, 48 hr incubation. How it is done: (§8) • 1. SCLC cell lines NCI-H889, NCI-H1963, and NCI-H146 were purchased from American Type Culture Collection. Cells were maintained in RPMI 1640 (Invitrogen Corp., Grand Island, N.Y.) supplemented with 10% fetal bovine serum (FBS, Invitrogen), 1% sodium pyruvate, 25 mM HEPES, 4.5 g/L glucose and 1% penicillin/streptomycin (Sigma) in a humidified chamber at 37° C. containing 5% CO2. • 2. cells were grown as suspension aggregates in a T162 flask with 25 ml medium and kept at concentration of 1 million/mL. Test Compound Stocks: • 1. test compounds were prepared as 10 mM stocks in DMSO and stored at −20° C. Test Compound Serial Dilutions: • 1. prewarmed medium to 37° C. • 2. thawed compounds to room temperature. • 3. determined what will be the highest concentration to be tested. (i.e. 10 μM). • 4. prepared a 2× stock in culture medium of the first dose (i.e. 2×10 μM=20 μM) in an Eppendorf tube (i.e. 4 μl of 5 mM stock into 1000 μl=20 μM). • 5. inverted tube several times to mix. […] Columns 1-10 comprised the serial test compound treatments, column 11 was the untreated control and column 12 was the ‘no cell’ control for determining the background. • 1. in a 96 well plate was added 50 μl medium/well in columns 2 thru 11 and 100 μl was added to column 12. • 2. in column 1 was added 100 μl of 2× compound. • 3. made serial dilutions by transferring 50 μl to column 2, and so on up to column 10. After adding 50 μl to column 10 and mixing, discarded 50 μl. • 4. stored plates at 37° C. until ready to add cells. Cell Preparation • 1. Cell were washed one time in the culture medium and prepared as a suspension. • a. cell were first spun down to remove the medium and then ˜1 ml 0.25% trypsin was added and gently mixed and incubated for no more than three minutes at room temperature. • b. ˜10 ml of the medium was added and the cells were gently pipetted several times. • c. cells were then counted and spun down to the volume necessary for the total cell number needed, then resuspended in the medium to 200 cells/μl concentration (50,000 cells/well). • 2. […]

In assay [5] the test system is SCLC cell line NCI-H146. The assay is described as follows: CellTitre-Glow luminescent cytotoxicity assay, NCI-H146. The assay is classed as cell-based. The settings on record: Homo sapiens; NCI-H146 cells, 48 hr incubation. How it is done: as §8
Assay [6] concerns SCLC cell line NCI-H889. The assay is described as follows: CellTitre-Glow luminescent cytotoxicity assay, NCI-H889. In kind it is cell-based. The settings on record: Homo sapiens; NCI-H889 cells, 48 hr incubation. How it is done:
as §8

Chain of GST tagged BCl-xL ΔC25 protein (Q07817 1-208 limits assumed): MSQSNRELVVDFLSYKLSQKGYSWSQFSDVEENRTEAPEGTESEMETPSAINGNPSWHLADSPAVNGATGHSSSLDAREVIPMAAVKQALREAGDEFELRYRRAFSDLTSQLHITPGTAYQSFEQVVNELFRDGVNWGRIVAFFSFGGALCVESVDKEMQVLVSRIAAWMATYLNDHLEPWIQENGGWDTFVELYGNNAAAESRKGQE

On to `CN(C)CC[C@H](CSc1ccccc1)Nc1ccc(S(=O)(=O)Nc2ncnc3cc(N4CCN(Cc5ccccc5-c5ccc(Cl)cc5)CC4)ccc23)cc1S(=O)(=O)C(F)(F)F` [Compound 2, N-{7-[4-(4′-Chloro-biphenyl-2-ylmethyl)-piperazin-1-yl]-quinazolin-4-yl}-4-((R)-3-dimethylamino-1-phenylsulfanylmethyl-propylamino)-3-trifluoromethanesulfonyl-benzenesulfonamide], for which the figures for the IC50 in assay [1] and in assay [2] were 6 nM and 50000 nM, respectively.

Turning to `CC1(C)CCC(c2ccc(Cl)cc2)=C(CN2CCN(c3ccc4c(NS(=O)(=O)c5ccc(N[C@H](CCN6CCOCC6)CSc6ccccc6)c(S(=O)(=O)C(F)(F)F)c5)ncnc4c3)CC2)C1` [Compound 8, N-(7-{4-[2-(4-Chloro-phenyl)-5,5-dimethyl-cyclohex-1-enylmethyl]-piperazin-1-yl}-quinazolin-4-yl)-4-((R)-3-morpholin-4-yl-1-phenylsulfanylmethylpropylamino)-3-trifluoromethanesulfonyl benzenesulfonamide], the IC50 – broadly, the concentration needed to halve the response being measured – in assay [1] came to 29 nM; in assay [2] it was 10000 nM.

Consider `CN(C)CC[C@H](CSc1ccccc1)Nc1ccc(S(=O)(=O)Nc2ncnc3cc(N4CCN(CC5=C(c6ccc(Cl)cc6)CCC(C)(C)C5)CC4)ccc23)cc1S(=O)(=O)C(F)(F)F` [Compound 6, N-(7-{4-[2-(4-Chloro-phenyl)-5,5-dimethyl-cyclohex-1-enylmethyl]-piperazin-1-yl}-quinazolin-4-yl)-4-((R)-3-dimethylamino-1-phenylsulfanylmethyl-propylamino)-3-trifluoromethanesulfonyl-benzenesulfonamide], for which the IC50 stood at 3 nM in assay [1] and 20000 nM in assay [2].

Turning to `COc1cc([C@@H]2c3cc4c(cc3[C@@H](O[C@@H]3O[C@@H]5CO[C@@H](C)O[C@H]5[C@H](O)[C@H]3O)[C@H]3COC(=O)[C@H]23)OCO4)cc(OC)c1O` [etoposide], in assay [3] (FIG. 1A/1B), the “Selectivity of killing of Noxa-expressing MEFs versus MEFs where both Bcl-xL and Mcl-1 are protective (% viability)” value is given as “less selectively than compound 1”. Also, the “Effect on Bax/Bak double knockout (BB DKO) MEFs” value in assay [3] (FIG. 1B) is listed as “resistance of BB DKO MEFs”.

`O=[N+]([O-])c1cc(S(=O)(=O)Nc2ncnc3cc(N4CCN(Cc5ccccc5-c5ccc(Cl)cc5)CC4)ccc23)ccc1N[C@H](CCN1CCOCC1)CSc1ccccc1` [Compound 3, N-{7-[4-(4′-Chloro-biphenyl-2-ylmethyl)-piperazin-1-yl]-quinazolin-4-yl}-4-((R)-3-morpholin-4-yl-1-phenylsulfanylmethyl-propylamino)-3-nitro-benzenesulfonamide]: the IC50 in assay [1] came to 34 nM; in assay [2], 6000 nM. The EC50 – broadly, the concentration giving half of the maximal effect – in assay [4] is 1.4 µM; in assay [5], 3.7 µM; in assay [6], 1.3 µM.

Consider `O=S(=O)(Nc1ncnc2cc(N3CCN(Cc4ccccc4-c4ccc(Cl)cc4)CC3)ccc12)c1ccc(N[C@H](CCN2CCOCC2)CSc2ccccc2)c(S(=O)(=O)C(F)(F)F)c1` [Compound 4, N-{7-[4-(4′-Chloro-biphenyl-2-ylmethyl)-piperazin-1-yl]-quinazolin-4-yl}-4-((R)-3-morpholin-4-yl-1-phenylsulfanylmethyl-propylamino)-3-trifluoromethanesulfonyl-benzenesulfonamide], for which the IC50 in assay [1] came to 16 nM. Also, the EC50 in assay [4] was 0.4 µM; in assay [5], 0.63 µM; in assay [6] it was 0.82 µM.

`CC1(C)CCC(c2ccc(Cl)cc2)=C(CN2CCN(c3ccc4c(NS(=O)(=O)c5ccc(N[C@H](CCN6CCOCC6)CSc6ccccc6)c([N+](=O)[O-])c5)ncnc4c3)CC2)C1` [Compound 7, N-(7-{4-[2-(4-Chloro-phenyl)-5,5-dimethyl-cyclohex-1-enylmethyl]-piperazin-1-yl}-quinazolin-4-yl)-4-((R)-3-morpholin-4-yl-1-phenylsulfanylmethyl-propylamino)-3-nitro-benzenesulfonamide]: the values for the IC50 in assay [1] and in assay [2] were 20 nM and 10000 nM, respectively.

Turning to `CN(C)CC[C@H](CSc1ccccc1)Nc1ccc(S(=O)(=O)Nc2ncnc3cc(N4CCN(CC5=C(c6ccc(Cl)cc6)CCC(C)(C)C5)CC4)ccc23)cc1[N+](=O)[O-]` [Compound 5, N-(7-{4-[2-(4-Chloro-phenyl)-5,5-dimethyl-cyclohex-1-enylmethyl]-piperazin-1-yl}-quinazolin-4-yl)-4-((R)-3-dimethylamino-1-phenylsulfanylmethyl-propylamino)-3-nitro-benzenesulfonamide], the results for the IC50 in assay [1] and in assay [2] were 3 nM and 7000 nM, respectively.

Values taken from patent publication US8168645B2, “Arylsulfonamide compounds” (Genentech, Inc., priority 2006, dated 2012).
